From PubChem BioAssay (NCI)
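The compound was tested at five concentrations on cells cultured in 96-well plates, with a 48-hour exposure period. The concentration for full growth arrest is given as TGI.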

Assays:
Assay in all cases: NCI tumour cell line growth inhibition, 48 h
HT29 colon = test system: HT29 colon
DMS 114 small cell lung = test system: DMS 114 small cell lung
UO-31 renal = test system: UO-31 renal
HOP-62 NSCLC = test system: HOP-62 NSCLC
A549 NSCLC = test system: A549 NSCLC
K-562 leukemia = test system: K-562 leukemia
ACHN renal = test system: ACHN renal
OVCAR-5 ovarian = test system: OVCAR-5 ovarian
KM20L2 colon = test system: KM20L2 colon
SW-620 colon = test system: SW-620 colon
OVCAR-3 ovarian = test system: OVCAR-3 ovarian
NCI-H522 lung = test system: NCI-H522 lung
SNB-19 CNS = test system: SNB-19 CNS
LOX IMVI melanoma = test system: LOX IMVI melanoma
CAKI-1 renal = test system: CAKI-1 renal
HL-60(TB) leukemia = test system: HL-60(TB) leukemia
SK-OV-3 ovarian = test system: SK-OV-3 ovarian
SF-268 CNS = test system: SF-268 CNS
NCI-H460 lung = test system: NCI-H460 lung
MALME-3M melanoma = test system: MALME-3M melanoma
SR leukemia = test system: SR leukemia
NCI-H23 lung = test system: NCI-H23 lung
M19-MEL melanoma = test system: M19-MEL melanoma
HOP-18 NSCLC = test system: HOP-18 NSCLC
RPMI-8226 leukemia = test system: RPMI-8226 leukemia
OVCAR-8 ovarian = test system: OVCAR-8 ovarian
SN12C renal = test system: SN12C renal
SNB-75 CNS = test system: SNB-75 CNS
COLO 205 colon = test system: COLO 205 colon
SF-539 CNS = test system: SF-539 CNS
SK-MEL-5 melanoma = test system: SK-MEL-5 melanoma
KM12 colon = test system: KM12 colon
UACC-62 melanoma = test system: UACC-62 melanoma
SK-MEL-28 melanoma = test system: SK-MEL-28 melanoma
U251 CNS = test system: U251 CNS
M14 melanoma = test system: M14 melanoma
SF-295 CNS = test system: SF-295 CNS
A498 renal = test system: A498 renal
NCI-H226 lung = test system: NCI-H226 lung
DLD-1 colon = test system: DLD-1 colon
MOLT-4 leukemia = test system: MOLT-4 leukemia
IGROV1 ovarian = test system: IGROV1 ovarian
DMS 273 small cell lung = test system: DMS 273 small cell lung
HCT-116 colon = test system: HCT-116 colon
OVCAR-4 ovarian = test system: OVCAR-4 ovarian
HCC-2998 colon = test system: HCC-2998 colon
SK-MEL-2 melanoma = test system: SK-MEL-2 melanoma
RXF-631 renal = test system: RXF-631 renal
CCRF-CEM leukemia = test system: CCRF-CEM leukemia
XF 498 CNS = test system: XF 498 CNS
LXFL 529 NSCLC = test system: LXFL 529 NSCLC
RXF 393 renal = test system: RXF 393 renal
UACC-257 melanoma = test system: UACC-257 melanoma
HCT-15 colon = test system: HCT-15 colon
TK-10 renal = test system: TK-10 renal
786-0 renal = test system: 786-0 renal
EKVX NSCLC = test system: EKVX NSCLC

Measured: TGI

C[Si](C)(C)OC1CC(=O)OC1n1cc(F)c(=O)[nH]c1=O (configuration not stated)
9.38 µM: SR leukemia
> 96.4 µM: CCRF-CEM leukemia
> 56 µM: SW-620 colon
> 69 µM: HCT-116 colon
98.4 µM: RXF 393 renal
32.5 µM: LOX IMVI melanoma
> 54 µM: HCT-15 colon
40.4 µM: RPMI-8226 leukemia
> 100 µM: all other assays above
